# Laboratory results from article PMC3047498 (Journal of andrology, 2010).
# Tests used:
# [1] = test system: endogenous testosterone production; assay: Suppression of endogenous testosterone production by acyline; assay type: in vivo, men; details: 300 µg/kg acyline; for Serum testosterone concentration 24 hours after acyline administration: before oral testosterone
# [2] = test system: endogenous testosterone production; details: 300 µg/kg acyline, normal healthy men; ref Herbst et al, 2004; cited from earlier work
# [3] = testosterone plus finasteride group
substance,measurement,setting,value
acyline,Serum DHT concentration 24 hours after the acyline injection,[1]; [3],0.54 ± 0.32 nmol/L
same,Serum testosterone concentration 24 hours after acyline administration,[1]; [3],2.3 ± 1.4 nmol/L
same,Serum DHT concentration 24 hours after the acyline injection,[1]; testosterone-only group,0.6 ± 0.32 nmol/L
same,Serum testosterone concentration 24 hours after acyline administration,[1]; testosterone-only group,2.0 ± 1.3 nmol/L
same,Duration of testosterone suppression,[2],2 weeks
same,Time to suppress testosterone to castrate levels,[2],≤ 24 h
